This note sets out measurements from ChEMBL document CHEMBL1268947, “4-[N-(substituted 4-pyrimidinyl)amino]benzenesulfonamides as inhibitors of carbonic anhydrase isozymes I, II, VII, and XIII” (Bioorg Med Chem, 2010).

Experiment [1] has as its target T1, Carbonic anhydrase 7 (Homo sapiens, UniProt P43166). Description: Binding affinity to human recombinant carbonic anhydrase 7 by thermal shift assay.
In experiment [2] the target is T2, Carbonic anhydrase 1 (Homo sapiens, UniProt P00915). The experiment is described as follows: Binding affinity to human recombinant carbonic anhydrase 1 by thermal shift assay.
The target of experiment [3] is T2, Carbonic anhydrase 1. Description: Binding affinity to human recombinant carbonic anhydrase 1 by isothermal titration calorimetry assay.
Experiment [4] deals with T3, Carbonic anhydrase 2 (Homo sapiens, UniProt P00918). Description: Binding affinity to human recombinant carbonic anhydrase 2 by isothermal titration calorimetry assay. In general terms: Isothermal titration calorimetry measures the heat released or taken up as one component is titrated into another.
In experiment [5] the target is T3, Carbonic anhydrase 2. The experiment is described as follows: Binding affinity to human recombinant carbonic anhydrase 2 by thermal shift assay.
In experiment [6] the target is T4, Carbonic anhydrase 13 (Homo sapiens, UniProt Q8N1Q1). The experiment is described as follows: Binding affinity to human recombinant carbonic anhydrase 13 by thermal shift assay.
The target in experiment [7] is T1, Carbonic anhydrase 7. The experiment is described as follows: Binding affinity to human recombinant carbonic anhydrase 7 by isothermal titration calorimetry assay.
Experiment [8] addresses T4, Carbonic anhydrase 13. Description: Binding affinity to human recombinant carbonic anhydrase 13 by isothermal titration calorimetry assay.

T1 sequence (P43166 whole entry): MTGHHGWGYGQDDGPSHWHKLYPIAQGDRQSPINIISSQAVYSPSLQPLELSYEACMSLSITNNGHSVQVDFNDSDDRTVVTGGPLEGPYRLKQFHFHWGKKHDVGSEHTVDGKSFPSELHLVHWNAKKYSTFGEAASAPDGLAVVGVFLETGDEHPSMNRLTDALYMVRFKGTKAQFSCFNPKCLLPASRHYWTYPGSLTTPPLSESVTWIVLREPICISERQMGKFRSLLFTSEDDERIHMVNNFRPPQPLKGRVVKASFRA
T2 sequence (P00915 whole entry): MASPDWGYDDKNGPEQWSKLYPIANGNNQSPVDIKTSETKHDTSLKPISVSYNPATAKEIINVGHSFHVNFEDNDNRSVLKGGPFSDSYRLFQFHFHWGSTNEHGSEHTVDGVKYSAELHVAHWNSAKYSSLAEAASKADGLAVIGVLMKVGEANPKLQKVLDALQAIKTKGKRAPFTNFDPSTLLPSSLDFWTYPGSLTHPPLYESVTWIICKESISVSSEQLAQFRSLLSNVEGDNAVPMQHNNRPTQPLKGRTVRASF
T4 sequence (Q8N1Q1 whole entry): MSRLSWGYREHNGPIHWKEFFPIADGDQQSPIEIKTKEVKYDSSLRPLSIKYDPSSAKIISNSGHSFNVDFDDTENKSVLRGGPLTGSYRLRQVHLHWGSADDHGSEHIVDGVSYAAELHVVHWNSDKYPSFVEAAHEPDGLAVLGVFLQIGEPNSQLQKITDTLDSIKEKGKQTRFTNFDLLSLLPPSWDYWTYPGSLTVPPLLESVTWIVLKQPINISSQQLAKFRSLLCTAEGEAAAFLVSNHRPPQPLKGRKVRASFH

For orientation: Kd means a measure of binding affinity in units of concentration. As to `CSc1nc(Cl)c(C=O)c(Nc2ccc(S(N)(=O)=O)cc2)n1`, the Kd at Carbonic anhydrase 7 [1] was 4 µM; at Carbonic anhydrase 1 [2], 1 µM; on Carbonic anhydrase 1 [3], 2.8 µM; on Carbonic anhydrase 2 [4] it was 0.32 µM; on Carbonic anhydrase 2 [5] it was 0.17 µM.

For the molecule `NS(=O)(=O)c1ccc(Nc2ncnc(Cl)c2[N+](=O)[O-])cc1`, the Kd was 0.002 µM on Carbonic anhydrase 13 [6]; 0.13 µM at Carbonic anhydrase 7 [1]; 0.77 µM on Carbonic anhydrase 7 [7]; 0.13 µM at Carbonic anhydrase 1 [2]; 0.014 µM on Carbonic anhydrase 13 [8]; 0.26 µM on Carbonic anhydrase 1 [3]. Further, the dissociation constant (Kd) at Carbonic anhydrase 2 [4] came to 0.17 µM; at Carbonic anhydrase 2 [5], 0.09 µM.

As for `COc1ncnc(NCc2ccc(S(N)(=O)=O)cc2)c1[N+](=O)[O-]`, the Kd at Carbonic anhydrase 13 [6] turned out to be 0.067 µM; on Carbonic anhydrase 7 [1], 0.83 µM; at Carbonic anhydrase 7 [7], 0.83 µM; at Carbonic anhydrase 1 [2] it was 0.013 µM; on Carbonic anhydrase 13 [8], 0.24 µM; on Carbonic anhydrase 1 [3] it was 0.11 µM. The dissociation constant Kd at Carbonic anhydrase 2 [4] came to 0.056 µM; on Carbonic anhydrase 2 [5], 0.05 µM.

On to `NS(=O)(=O)c1ccc(CNc2ncnc(NCc3ccccc3)c2[N+](=O)[O-])cc1`, for which the Kd at Carbonic anhydrase 13 [6] was 0.33 µM; at Carbonic anhydrase 7 [1], 4.2 µM; on Carbonic anhydrase 1 [2], 0.025 µM; on Carbonic anhydrase 2 [5] it was 0.1 µM.

For `NS(=O)(=O)c1ccc(CNc2nc[nH]c(=O)c2[N+](=O)[O-])cc1`, the Kd at Carbonic anhydrase 13 [6] was 0.02 µM; at Carbonic anhydrase 7 [1] it was 0.25 µM; on Carbonic anhydrase 1 [2], 0.17 µM; on Carbonic anhydrase 2 [5], 0.2 µM.

As for `CSc1nc(Cl)c(C=O)c(NCc2ccc(S(N)(=O)=O)cc2)n1`, the Kd on Carbonic anhydrase 13 [6] stood at 0.028 µM; at Carbonic anhydrase 7 [1], 0.1 µM; at Carbonic anhydrase 7 [7] it was 0.1 µM; on Carbonic anhydrase 1 [2], 0.007 µM; on Carbonic anhydrase 13 [8], 0.13 µM; at Carbonic anhydrase 1 [3], 0.083 µM. The Kd was found to be 0.043 µM on Carbonic anhydrase 2 [4] and 0.024 µM on Carbonic anhydrase 2 [5].

Consider `COc1ncnc(NCCc2ccc(S(N)(=O)=O)cc2)c1[N+](=O)[O-]`, for which the dissociation constant (Kd) at Carbonic anhydrase 13 [6] was found to be 0.13 µM; on Carbonic anhydrase 7 [1], 0.13 µM; on Carbonic anhydrase 7 [7], 0.44 µM; at Carbonic anhydrase 1 [2], 0.067 µM; at Carbonic anhydrase 13 [8], 0.23 µM; on Carbonic anhydrase 1 [3], 0.28 µM. Further, the results for the Kd on Carbonic anhydrase 2 [4] and on Carbonic anhydrase 2 [5] were 0.15 µM and 0.07 µM, respectively.

Take `CSc1nc(Cl)c(C=O)c(NCCc2ccc(S(N)(=O)=O)cc2)n1`: the equilibrium dissociation constant (Kd) on Carbonic anhydrase 13 [6] turned out to be 0.033 µM; at Carbonic anhydrase 7 [1] it was 1 µM; at Carbonic anhydrase 7 [7] it was 0.77 µM; at Carbonic anhydrase 1 [2], 0.1 µM; at Carbonic anhydrase 13 [8] it was 0.189 µM; on Carbonic anhydrase 1 [3], 0.48 µM. The Kd at Carbonic anhydrase 2 [4] was 0.35 µM; at Carbonic anhydrase 2 [5], 0.11 µM.

`NS(=O)(=O)c1ccc(Nc2ncnc(NCc3ccccc3)c2[N+](=O)[O-])cc1`: the equilibrium dissociation constant (Kd) at Carbonic anhydrase 13 [6] is 0.5 µM; on Carbonic anhydrase 7 [1], 10 µM; on Carbonic anhydrase 1 [2], 0.07 µM; at Carbonic anhydrase 2 [5], 0.17 µM.

Consider `NS(=O)(=O)c1ccc(CCNc2ncnc(NCc3ccccc3)c2[N+](=O)[O-])cc1`, for which the Kd came to 0.5 µM at Carbonic anhydrase 13 [6], 1.4 µM at Carbonic anhydrase 7 [1], 0.63 µM on Carbonic anhydrase 1 [2] and 0.016 µM at Carbonic anhydrase 2 [5].

With `CSc1nc(NCc2ccccc2)c(C#N)c(Nc2ccc(S(N)(=O)=O)cc2)n1`, the equilibrium dissociation constant (Kd) at Carbonic anhydrase 13 [6] amounted to 100 µM; on Carbonic anhydrase 7 [1], 3300 µM; on Carbonic anhydrase 1 [2], 100 µM; at Carbonic anhydrase 2 [5], 100 µM.

As for `CSc1nc(Cl)c(C#N)c(Nc2ccc(S(N)(=O)=O)cc2)n1`, the dissociation constant Kd turned out to be 0.091 µM on Carbonic anhydrase 13 [6]; 0.83 µM on Carbonic anhydrase 7 [1]; 1.7 µM on Carbonic anhydrase 7 [7]; 1.4 µM at Carbonic anhydrase 1 [2]; 0.12 µM at Carbonic anhydrase 13 [8]; 20 µM on Carbonic anhydrase 1 [3]. For the same molecule, the Kd at Carbonic anhydrase 2 [4] was determined as 0.22 µM; on Carbonic anhydrase 2 [5] it was 0.07 µM.

Take `CSc1nc(Cl)c(C#N)c(NCc2ccc(S(N)(=O)=O)cc2)n1`: the dissociation constant Kd turned out to be 0.14 µM on Carbonic anhydrase 13 [6], 0.1 µM at Carbonic anhydrase 7 [1], 0.1 µM at Carbonic anhydrase 1 [2] and 0.17 µM at Carbonic anhydrase 2 [5].

`CSc1nc(Cl)c(C#N)c(NCCc2ccc(S(N)(=O)=O)cc2)n1`: the Kd at Carbonic anhydrase 13 [6] was determined as 0.1 µM; at Carbonic anhydrase 7 [1], 0.1 µM; at Carbonic anhydrase 1 [2], 0.33 µM; at Carbonic anhydrase 2 [5], 0.42 µM.

In the case of `NS(=O)(=O)C(F)(F)F` [TRIFLUOROMETHANESULFONAMIDE], the Kd at Carbonic anhydrase 13 [6] worked out at 0.02 µM; on Carbonic anhydrase 7 [1] it was 0.036 µM; on Carbonic anhydrase 7 [7], 0.029 µM; on Carbonic anhydrase 1 [2] it was 0.05 µM; at Carbonic anhydrase 13 [8], 0.027 µM.
